Counter-ions that a name gives are not always drawn. A value given as a limit tells only on which side of the number the result lay.

Assay [1] deals with leukotriene pathway in human whole blood (LTB4). Put plainly: Human whole blood assay (LTB4 levels after calcium ionophore A23187 stimulation). It counts as cell-based. Particulars: Homo sapiens, Table 6 (additional runs); human whole blood diluted 1:1, A23187 stimulation; read-out: Human Whole Blood LTB4 IC50 1:1. The protocol:
The ability of the compounds of the present invention to treat a FLAP-mediated disease and/or disorder, or associated symptoms or complications thereof, was determined using the following procedures. Binding assay data represent the average value obtained from two different assay plates, with samples run in duplicate on each plate. Human whole blood assay data represent a single replicate on an assay plate using whole blood from at least one healthy donor.
An in vitro cellular assay was performed using human whole blood collected in heparin-containing tubes, which was used to test the ability of compounds to modulate the leukotriene pathway in human whole blood. The blood was diluted 1:1 in RPMI medium, pre-incubated for 15 min at 37° Celsius with test compounds at various concentrations, and then stimulated with calcium ionophore, A23187 (7 μg/mL), for 30 min at 37° Celsius. The samples were then centrifuged and plasma was removed. The plasma was diluted in assay buffer and LTB4 levels were measured using a commercial kit (Enzo Life Sciences). The concentration of each compound that was required for half-maximal inhibition (modulation) of recombinant enzyme activity (IC50) was calculated by a 4-parameter equation using the program GraphPad Prism (GraphPad software).

Assay [2] has as its target human FLAP (Homo sapiens (Human), UniProt P20292). Put plainly: FLAP binding assay (HTRF format). Particulars: human FLAP wild type. The procedure, abridged: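 Reported data take the mean of two different plates carrying duplicate samples and use the HTRF ratio as the measured signal.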
In general terms: In TR-FRET formats the signal depends on donor and acceptor labels being close together.

human FLAP, sequence (P20292 whole entry): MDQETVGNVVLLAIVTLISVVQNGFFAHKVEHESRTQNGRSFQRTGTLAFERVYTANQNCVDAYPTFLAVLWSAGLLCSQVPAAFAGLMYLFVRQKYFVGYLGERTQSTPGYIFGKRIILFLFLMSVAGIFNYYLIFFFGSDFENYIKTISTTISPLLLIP

As usually defined, the IC50 is the point on the concentration scale where inhibition reaches its midpoint. In the case of `C[C@@H](CO)NS(=O)(=O)c1ccccc1-c1ccc(-c2cnc(N)cn2)c(F)c1` [Example 25, (R)-4′-(5-Aminopyrazin-2-yl)-3′-fluoro-N-[(1R)-2-hydroxy-1-methylethyl]piphenyl-2-sulfonamicie], the half-maximal inhibitory concentration (IC50) in assay [1] came out at 26.3 nM. What is called Ki is a dissociation constant, usually derived from enzyme kinetics or from competition with a known ligand. As to `N#Cc1cccnc1COc1ccccc1-c1ccc(-c2cnc(N)cn2)c(F)c1` [Example 531, 2-({[4′-(5-Aminopyrazin-2-yl)-3′-fluorobiphenyl-2-yl]oxy}methyl)pyridine-3-carbonitrile], the Ki in assay [2] (Table 6 (additional runs)) stood at 8.5 nM.

With `Nc1cnc(-c2ccc(-c3ccccc3Oc3ccnc(N)n3)cc2F)cn1` [Example 533, 4-{[4′-(5-Aminopyrazin-2-yl)-3′-fluorobiphenyl-2-yl]oxy}pyrimidin-2-amine], the inhibition constant Ki in assay [2] (Table 6 (additional runs)) worked out at 4.5 nM. In assay [2] (Table 6 (additional runs)), `N#Cc1cc(Oc2ccccc2-c2ccc(-c3cnc(N)nc3)c(F)c2)ccn1` [Example 538, 4-{[4′-(2-Aminopyrimidin-5-yl)-3′-fluorobiphenyl-2-yl]oxy}pyridine-2-carbonitrile] returned a Ki of 20.2 nM. As to `Nc1cnc(-c2ccc(-c3ccccc3Oc3cc(N4CCC4)ncn3)cc2F)cn1` [Example 539, 5-{2′-[(6-Azetidin-1-ylpyrimidin-4-yl)oxy]-3-fluorobiphenyl-4-yl}pyrazin-2-amine], in assay [2] (Table 6 (additional runs)), the Ki worked out at 1.6 nM. Still for that read-out and setting: next, `COc1cnc(Oc2ccccc2-c2ccc(-c3cnc(N)nc3)c(F)c2)nc1` [Example 550, 5-{3-Fluoro-2′-[(5-methoxypyrimidin-2-yl)oxy]biphenyl-4-yl}pyrimidin-2-amine]: 1.7 nM.

As for `Nc1cnc(-c2ccc(-c3ccc(C(F)(F)F)cc3Oc3ncccn3)cc2F)cn1` [Example 551, 5-[3-Fluoro-2′-(pyrimidin-2-yloxy)-4′-(trifluoromethyl)biphenyl-4-yl]pyrazin-2-amine], the inhibitory constant (Ki) is 0.4 nM in assay [2] (Table 6 (additional runs)) and < 1 nM in assay [2] (a calculated value of 0.000 indicates Ki less than 1 nM). For `Nc1ncc(-c2ccc(-c3ccc(C(F)(F)F)cc3Oc3ncccn3)cc2F)cn1` [Example 552, 5-[3-Fluoro-2′-(pyrimidin-2-yloxy)-4′-(trifluoromethyl)biphenyl-4-yl]pyrimidin-2-amine], the Ki in assay [2] (Table 6 (additional runs)) amounted to 5.5 nM. Same read-out and setting: next, `COc1cc(C(F)(F)F)ccc1-c1ccc(-c2cnc(N)cn2)c(F)c1` [Example 553, 5-[3-fluoro-2′-methoxy-4′-(trifluoromethyl)biphenyl-4-yl]pyrazin-2-amine]: 19.3 nM. Still for that read-out and setting: next, `Nc1cnc(-c2ccc(-c3ccc(C(F)(F)F)cc3Oc3ccnc(N)n3)cc2F)cn1` [Example 555, 4-{[4′-(5-Aminopyrazin-2-yl)-3′-fluoro-4-(trifluoromethyl)biphenyl-2-yl]oxy}pyrimidin-2-amine]: 1.6 nM; `Nc1cnc(-c2ccc(-c3ccc(C(F)(F)F)cc3Oc3nccc(N)n3)cc2F)cn1` [Example 556, 2-{[4′-(5-Aminopyrazin-2-yl)-3′-fluoro-4-(trifluoromethyl)biphenyl-2-yl]oxy}pyrimidin-4-amine]: 0.7 nM. In assay [2] (Table 6 (additional runs)), `Nc1ccnc(Oc2cc(C(F)(F)F)ccc2-c2ccc(-c3cnc(N)nc3)c(F)c2)n1` [Example 559, 5-{2′-[(4-Aminopyrimidin-2-yl)oxy]-3-fluoro-4′-(trifluoromethyl)biphenyl-4-yl}pyrimidin-2-amine] yielded an inhibition constant (Ki) of 1.5 nM. Same read-out and setting: next, `Nc1cc(Oc2cc(C(F)(F)F)ccc2-c2ccc(-c3cnc(N)nc3)c(F)c2)ncn1` [Example 561, 5-{2′-[(6-Aminopyrimidin-4-yl)oxy]-3-fluoro-4′-(trifluoromethyl)biphenyl-4-yl}pyrimidin-2-amine]: 4.4 nM; `CC(C)(C)NS(=O)(=O)c1ccccc1-c1ccc(-c2cnc(N)cn2)cc1` [Example 571, 4′-(5-Aminopyrazin-2-yl)-N-tert-butylbiphenyl-2-sulfonamide]: 1.7 nM; `CC(C)(C)NS(=O)(=O)c1ccccc1-c1ccc(-c2cnc(N)cn2)cc1F` [Example 574, 4′-(5-Aminopyrazin-2-yl)-N-tert-butyl-2′-fluorobiphenyl-sultonamide]: 13.9 nM.

`Nc1nc(-c2ccc(-c3ccccc3S(=O)(=O)N3CCCC3)cc2F)cs1` [Example 579, 4-[3-Fluoro-2′-(pyrrolidin-1-ylsulfonyl)biphenyl-4-yl]-1,3-thiazol-2-amine] returned a Ki in assay [2] (Table 6 (additional runs)) of 95.1 nM. Turning to `CC(C)(C)NS(=O)(=O)c1ccccc1-c1ccc(-c2ccc3[nH]nc(N)c3c2)c(F)c1` [Example 597, 4′-(3-Amino-1H-indazol-5-yl)-N-tert-butyl-3′-fluorobiphenyl-2-sulfonamide], the Ki in assay [2] (Table 6 (additional runs)) was ~2500 nM. With `Nc1cnc(Oc2ccccc2-c2ccc(-c3cnc(N)cn3)c(F)c2)nc1` [Example 614, 2-{[4′-(5-Aminopyrazin-2-yl)-3′-fluorobiphenyl-2-yl]oxy}pyrimidin-5-amine], the Ki in assay [2] (Table 6 (additional runs)) amounted to 9.8 nM. In turn, `Nc1cnc(Oc2ccccc2-c2ccc(-c3cnc(N)nc3)c(F)c2)nc1` [Example 615, 5-{2′-[(5-Aminopyrimidin-2-yl)oxy]-3-fluorobiphenyl-4-yl}pyrimidin-2-amine] gave an inhibitory constant (Ki) in assay [2] (Table 6 (additional runs)) of 50.9 nM. `Cc1cc(N)nc(Oc2ccccc2-c2ccc(-c3cnc(N)cn3)c(F)c2)n1` [Example 616, 2-{[4′-(5-Aminopyrazin-2-yl)-3′-fluorobiphenyl-2-yl]oxy}-6-methylpyrimidin-4-amine]: the Ki in assay [2] (Table 6 (additional runs)) turned out to be 16.4 nM. In assay [2] (Table 6 (additional runs)), `Cc1cc(N)nc(Oc2ccccc2-c2ccc(-c3cnc(N)nc3)c(F)c2)n1` [Example 617, 5-{2′-[(4-Amino-6-methylpyrimidin-2-yl)oxy]-3-fluorobiphenyl-4-yl}pyrimidin-2-amine] returned an inhibitory constant (Ki) of 162 nM. For the molecule `Nc1ncc(-c2ccc(-c3ccccc3Oc3cccc(C(F)(F)F)n3)cc2F)cn1` [Example 624, 5-(3-Fluoro-2′-{[6-(trifluoromethyl)pyridin-2-yl]oxy}biphenyl-4-yl)pyrimidin-2-amine], the inhibition constant (Ki) in assay [2] (Table 6 (additional runs)) was found to be 32.7 nM. In the case of `Nc1cnc(-c2ccc(-c3cccnc3OC3CCNCC3)cc2F)cn1` [Example 645], the Ki in assay [2] (Table 6 (additional runs)) is > 10000 nM. Consider `Nc1ncc(-c2ccc(-c3cccnc3OC3CCNCC3)cc2F)cn1` [Example 646, 5-{2-Fluoro-4-[2-(piperidin-4-yloxy)pyridin-3-yl]phenyl}pyrimidin-2-amine], for which the Ki in assay [2] (Table 6 (additional runs)) is > 10000 nM. For `Nc1cnc(-c2ccc(-c3cccnc3OC3CCS(=O)(=O)CC3)cc2F)cn1` [Example 647, 5-(4-{2-[(1,1-Dioxidotetrahydro-2H-thiopyran4-yl)oxy]pyridin-3-yl}-2-fluorophenyl)pyrazin-2-amine], affinity in assay [2] (Table 6 (additional runs)) was put at a Ki of 227 nM. Turning to `Nc1ncc(-c2ccc(-c3cccnc3OC3CCS(=O)(=O)CC3)cc2F)cn1` [Example 648, 5-(4-{2-[(1,1-Dioxidotetranydro-2H-thiopyran-4-yl)oxy]pyridin-3-yl}-2-fluorophenyl)pyrimidin-2-amine], the Ki in assay [2] (Table 6 (additional runs)) amounted to 834 nM. On to `CC(C)(C)NS(=O)(=O)c1ccccc1-c1cnc(-c2cnc(N)nc2)c(F)c1` [Example 675, 2-[6-(2-Aminopyrimidin-5-yl)-5-fluoropyridin-3-yl]-N-tert-butylbenzenesulfonamide], for which the inhibition constant Ki in assay [2] (Table 6 (additional runs)) came to 1 nM. Consider `C[C@H](NS(=O)(=O)c1ccccc1-c1ccc(-c2cnc(N)nc2)nc1)C(F)(F)F` [Example 685, 2-[6-(2-Aminopyrimidin-5-yl)pyridin-3-yl]-N-[(1S)-2,2,2-trifluoro-1-methylethyl]benzenesulfonamide trifluoroacetic acid salt], for which the inhibition constant Ki in assay [2] (Table 6 (additional runs)) amounted to 59.2 nM.

Turning to `Nc1cnc(-c2ccc(-c3ccc(Br)cc3F)cc2F)cn1` [Example 696, 5-(4′-Bromo-2′,3-difluoroblphenyl-4-yl)pyrazin-2-amine], the Ki in assay [2] (Table 6 (additional runs)) came out at 141 nM. On the same count and under the same terms, next, `N#Cc1ccccc1-c1ccc(-c2cnc(N)cn2)c(F)c1` [Example 701, 4′-(5-Aminopyrazin-2-yl)-3′-fluorobiphenyl-2-carbonitrile]: 132 nM; `C[C@H]1COCCN1C(=O)c1ccccc1-c1ccc(-c2cnc(N)cn2)c(F)c1` [Example 774, 5-(3-Fluoro-2′-{[(3S)-3-methylmorpholin-4-yl]carbonyl}biphenyl-4-yl)pyrazin-2-amine]: 1300 nM. On to `C[C@@H]1COCCN1C(=O)c1ccccc1-c1ccc(-c2cnc(N)cn2)c(F)c1` [Example 775, 5-(3-Fluoro-2′-{[(3R)-3-methylmorpholin-4-yl]carbonyl}biphenyyl-4-yl)pyrazin-2-amine], for which the Ki in assay [2] (Table 6 (additional runs)) is 30.4 nM. Same read-out and setting: to `C[C@H]1CN(C(=O)c2ccccc2-c2ccc(-c3cnc(N)cn3)c(F)c2)CCO1` [Example 776, 5-(3-Fluoro-2′-{[(2S)-2-methylmorpholin-4-yl]carbonyl}biphenyl-4-yl)pyrazin-2-amine] belongs 150 nM; to `C[C@H]1CN(C(=O)c2ccccc2-c2ccc(-c3cnc(N)nc3)c(F)c2)CCO1` [Example 777, 5-(3-Fluoro-2′-{[(2S)-2-methylmorpholin-4-yl]carbonyl}biphenyl-4-yl)pyrimidin-2-amine], 1620 nM. In turn, `Nc1ncc(-c2ccc(-c3cccnc3S(=O)(=O)C3CCS(=O)(=O)CC3)cc2F)cn1` [Example 819, 4-((3-(4-(2-aminopyrimidin-5-yl)-3-fluorophenyl)pyridine-2-yl)sulfonyl)tetrahydro-2H-thiopyran 1,1-dioxide] returned a Ki in assay [2] (Table 6 (additional runs)) of 74.3 nM.

The values above are taken from US9745328B2, “Flap modulators” (JANSSEN PHARMACEUTICA NV, priority 2013, dated 2017).
